Data published in patent US12152087B2, “Deuterated melflufen compounds” (Oncopeptides AB, priority 2018, dated 2024).
Counter-ions that a name gives are not always drawn. Like-named read-outs stand apart in the source and are kept apart here.

Assays:
[1] = Comparative single dose toxicokinetic study in dogs, 30 minutes intravenous infusion; assay type: in vivo, beagle dogs; details: for AUC(0-t) / Tmax / Cmax / half-life: beagle, dog; for AUC(0-t) / Tmax / Cmax / Tlast / half-life: plasma; for AUC(0-t) / Tmax / Cmax: iv; for AUC(0-t) / Tmax / Cmax / Tlast: mean, labelled analyte; for Cmax: read-out: Cmax; for increase of systemic exposure with increasing doses, assuming dose proportionality: increasing doses of melflufen-d5 (III) infusion (1.25 and 2.5 mg/kg); for half-life: intravenous, estimable in one animal only, read-out: half-life
Procedure: A comparative single dose toxicity study in dogs was carried out, comparing melflufen-d5 (III) and melflufen to investigate the toxicokinetics of melflufen and melflufen-d5 (III) and their metabolites, desethyl-melflufen and melphalan, after a single intravenous administration of melflufen-d5 (III) or melflufen as 30 minutes infusion in the dog.
This study aimed to compare the potential acute toxicity of melflufen-d5 (III) and melflufen. The toxicokinetics of melflufen-d5 (III), melflufen and their metabolites desethyl-melflufen and melphalan were evaluated after a single intravenous administration as 30 minutes infusion in dogs.
Melflufen-d5 (III) or melflufen were given as 30 minutes infusion to male and female dogs according to the following scheme:
Blood samples were collected from peripheral vein on Day 1 at pre-dose, 15 min, 30 min (just prior to end of infusion), 40 min, 1 h, 2 h, 4 h and 6 h after the start of infusion).
Blood samples were collected into heparinized collection tubes, put in an ice-water bath and immediately centrifuged (3 minutes, 10000 g, +4° C.). The obtained plasma was divided into two aliquots, placed into pre-chilled cryovials and in a freezer at −70° C. until analysis.
Toxicokinetic Calculations Plasma toxicokinetic analyses for melflufen-d5 (III), melflufen and their metabolites, desethyl-melflufen and melphalan were performed according to standard non-compartmental approach using Phoenix WinNonlin system (v. 6.3, Certara Company, USA).
After administration, Cmax, maximum concentration, and Tmax, time at which the maximum concentration was achieved, were read as the coordinates of the highest plasma concentration of the time course. Clast, last detectable concentration, and Tlast, time of the last detectable concentration, were reported as parameters.
The area under plasma concentration vs. time curve up to the last detectable concentration, AUClast, was calculated by the linear trapezoidal rule.
t1/2,z, the half-life of the terminal phase, was calculated by linear regression analysis of the natural-log concentration vs. time curve according to the formula: […]
AUC∞ the area under plasma concentration vs. time curve up to infinite time, was calculated by adding the portion of the area calculated as Clast/λz to AUClast assuming mono-exponential decay.

[2] = system: primary cultures of human tumour cells; details: panels of primary cultures of human tumour cells; cited from earlier work
[3] = both sexes, 1.25 mg/kg, group 2: melflufen-d5 (III) 1.25 mg/kg 30 min infusion, M + F combined
[4] = both sexes, 2.5 mg/kg, group 3: melflufen-d5 (III) 2.5 mg/kg 30 min infusion, M + F combined
[5] = female, 1.25 mg/kg, group 2: melflufen-d5 (III) 1.25 mg/kg 30 min infusion, females
[6] = female, 2.5 mg/kg, group 3: melflufen-d5 (III) 2.5 mg/kg 30 min infusion, females
[7] = male, 1.25 mg/kg, group 2: melflufen-d5 (III) 1.25 mg/kg 30 min infusion, males
[8] = male, 2.5 mg/kg, group 3: melflufen-d5 (III) 2.5 mg/kg 30 min infusion, males
[9] = group 2: melflufen-d5 (III) 1.25 mg/kg 30 min infusion, M + F combined
[10] = group 2: melflufen-d5 (III) 1.25 mg/kg 30 min infusion, females
[11] = group 2: melflufen-d5 (III) 1.25 mg/kg 30 min infusion, males
[12] = group 3: melflufen-d5 (III) 2.5 mg/kg 30 min infusion, M + F combined
[13] = group 3: melflufen-d5 (III) 2.5 mg/kg 30 min infusion, females
[14] = group 3: melflufen-d5 (III) 2.5 mg/kg 30 min infusion, males
[15] = both sexes, 2.5 mg/kg, group 4: melflufen 2.5 mg/kg 30 min infusion, M + F combined
[16] = female, 2.5 mg/kg, group 4: melflufen 2.5 mg/kg 30 min infusion, females
[17] = male, 2.5 mg/kg, group 4: melflufen 2.5 mg/kg 30 min infusion, males
[18] = group 4: melflufen 2.5 mg/kg 30 min infusion, M + F combined
[19] = group 4: melflufen 2.5 mg/kg 30 min infusion, females
[20] = group 4: melflufen 2.5 mg/kg 30 min infusion, males
[21] = 2-fold melflufen-d5 (III) dose increase (1.25 to 2.5 mg/kg), combined genders

For `[2H]C([2H])([2H])C([2H])([2H])OC(=O)C(Cc1ccc(F)cc1)NC(=O)C(N)Cc1ccc(N(CCCl)CCCl)cc1` [melflufen-d5 (III), (^2H5)ethyl (2S)-2-[(2S)-2-amino-3-{4-[bis(2-chloroethyl)amino]phenyl}propanamido]-3-(4-fluorophenyl)propanoate hydrochloride], the “increase of exposure with the dose in terms of peak and area under the curve” value ([1]; 2.5 vs 1.25 mg/kg melflufen-d5 (III) (2-fold dose increase), combined gender parameters) was 2.7 fold, the AUC(0-t) [1, 3] was 0.0336 µM·h and the Tmax [1, 3] was 22.5 min. For the same compound, the Cmax [1, 3] was 98.5 nM, the AUC(0-t) [1, 4] was 0.0902 µM·h and the Tmax [1, 4] was 22.5 min. For the same compound, the Cmax [1, 4] was 253 nM, the “exposure after infusion of melflufen-d5 (III) compared to melflufen” value ([1]; equivalent doses) was “consistently higher” and the AUC(0-t) [1, 5] was 0.0296 µM·h. The Tmax [1, 5] was 30 min, the Cmax [1, 5] was 99.3 nM and the AUC(0-t) [1, 6] was 0.0564 µM·h. For the same compound, the Tmax [1, 6] was 20 min, the Cmax [1, 6] was 159 nM and the “increase of systemic exposure with increasing doses, assuming dose proportionality” value [1] was “slightly more than expected”. It also gave an AUC(0-t) [1, 7] of 0.0377 µM·h, a Tmax [1, 7] of 15 min and a Cmax [1, 7] of 97.7 nM. It also gave an AUC(0-t) [1, 8] of 0.124 µM·h, a Tmax [1, 8] of 25 min and a Cmax [1, 8] of 346 nM. For the same compound, the Tlast [1, 9] was 0.528 h, the Tlast [1, 10] was 0.50 h and the Tlast [1, 11] was 0.556 h. For the same compound, the Tlast [1, 12] was 0.611 h, the Tlast [1, 13] was 0.611 h and the Tlast [1, 14] was 0.611 h. For the same compound, the “disappeared from plasma, time from start of dosing” value ([1]; melflufen-d5 (III) infused for 30 minutes at 1.25 and 2.5 mg/kg (groups 2 and 3)) was no more than 40 min.

For `CCOC(=O)[C@H](Cc1ccc(F)cc1)NC(=O)[C@@H](N)Cc1ccc(N(CCCl)CCCl)cc1` [melflufen, L-Melphalanyl-4-fluoro-L-phenylalanine ethyl ester], the “efficacy, fold higher than melphalan” value [2] is listed as 50 to 100 fold, the AUC(0-t) [1, 15] is listed as 0.0433 µM·h and the Tmax [1, 15] is listed as 20 min. For the same compound, the Cmax [1, 15] was 144 nM, the “average exposure to melflufen, fold lower than that to melflufen-d5 (III)” value ([1]; each at 2.5 mg/kg (group 4 vs group 3)) was 2 fold and the AUC(0-t) [1, 16] was 0.0539 µM·h. For the same compound, the Tmax [1, 16] was 25 min, the Cmax [1, 16] was 163 nM and the AUC(0-t) [1, 17] was 0.0326 µM·h. The Tmax [1, 17] was 15 min, the Cmax [1, 17] was 124 nM and the Tlast [1, 18] was 0.500 h. For the same compound, the Tlast [1, 19] was 0.500 h, the Tlast [1, 20] was 0.500 h and the “time of peak in plasma” value ([1]; melflufen infused for 30 minutes at 2.5 mg/kg (group 4)) was 15 to 30 min.

With `N[C@@H](Cc1ccc(N(CCCl)CCCl)cc1)C(=O)N[C@@H](Cc1ccc(F)cc1)C(=O)O` [desethyl-melflufen, (2S)-2-[[(2S)-2-amino-3-[4-[bis(2-chloroethyl)amino]phenyl]propanoyl]amino]-3-(4-fluorophenyl)propanoic acid] the “increase of AUClast of the metabolite with dose” value [1, 21] was 3.5 fold, the “increase of Cmax of the metabolite with dose” value [1, 21] was 3.1 fold and the “exposure relative to the parent compound exposure” value ([1]; after melflufen-d5 (III) infusion) was “about one-half”. The half-life ([1]; 2.5 mg/kg, after melflufen 2.5 mg/kg (group 4)) was 7 min, the half-life ([1]; 2.5 mg/kg, after melflufen-d5 (III) 2.5 mg/kg) was 5 min and the AUC(0-t) [1, 3] was 0.0144 µM·h. The Tmax [1, 3] was 30 min, the Cmax [1, 3] was 33.2 nM and the AUC(0-t) [1, 4] was 0.0506 µM·h. For the same compound, the Tmax [1, 4] was 27.5 min, the Cmax [1, 4] was 102 nM and the AUC(0-t) [1, 15] was 0.0325 µM·h. For the same compound, the Tmax [1, 15] was 27.5 min, the Cmax [1, 15] was 71.4 nM and the “average exposure to the metabolite after infusion of melflufen compared with after infusion of melflufen-d5 (III)” value ([1]; each at 2.5 mg/kg) was “lower”. It also gave an AUC(0-t) [1, 5] of 0.0132 µM·h, a Tmax [1, 5] of 30 min and a Cmax [1, 5] of 30.8 nM. It also gave an AUC(0-t) [1, 6] of 0.0358 µM·h, a Tmax [1, 6] of 30 min and a Cmax [1, 6] of 70.3 nM. It also gave an AUC(0-t) [1, 16] of 0.0287 µM·h, a Tmax [1, 16] of 25 min and a Cmax [1, 16] of 60.5 nM. The “increase of systemic exposure with increasing doses, assuming dose proportionality” value [1] was “slightly more than expected”, the “no longer detectable after, post-dosing” value ([1]; labelled metabolite after 1.25-2.5 mg/kg melflufen-d5 (III) infusion) was 40 to 60 min and the “time of maximal plasma concentration” value ([1]; labelled metabolite after 1.25 and 2.5 mg/kg melflufen-d5 (III) infusion (groups 2 and 3)) was 15 to 30 min. It also gave an AUC(0-t) [1, 7] of 0.0155 µM·h, a Tmax [1, 7] of 30 min and a Cmax [1, 7] of 35.6 nM. It also gave an AUC(0-t) [1, 8] of 0.0655 µM·h, a Tmax [1, 8] of 25 min and a Cmax [1, 8] of 134 nM. For the same compound, the AUC(0-t) [1, 17] was 0.0363 µM·h, the Tmax [1, 17] was 30 min and the Cmax [1, 17] was 82.2 nM. The Tlast [1, 9] was 0.667 h, the Tlast [1, 10] was 0.667 h and the Tlast [1, 11] was 0.667 h. For the same compound, the Tlast [1, 12] was 1.00 h, the Tlast [1, 13] was 1.00 h and the Tlast [1, 14] was 1.00 h. It also gave a Tlast [1, 18] of 0.945 h, a Tlast [1, 19] of 0.889 h and a Tlast [1, 20] of 1.00 h.
